Reference: patent US8048889B2, “3,4-disubstituted coumarin and quinolone compounds” (XTL Biopharmaceuticals Ltd., priority 2005, dated 2011)

Assays:
[1] = tested on: HCV Replicon (HCV IRES driven luciferase reporter in Huh-Luc-Neo cells); assay: HCV Replicon Luciferase Assay; assay type: cell-based; conditions: Hepatitis C virus, 48 h, no unit in table, hit threshold in μM
Procedure: (§1) The identification of inhibitors of HCV replication and/or proliferation has been facilitated by the development of a cell based system to study HCV replication and assay for HCV inhibitors. Inhibition of HCV replication may be performed using the HCV Replicon Assay developed in the laboratories of Bartenschlager (Lohman et al, Science 285, 110-113, 1999) and Rice (Blight et al, Science 290, 1972-1974, 2000). The assay is performed using the Huh-Luc-Neo cell line (Lohman et al, Science 285, 110-113, 1999). Huh-Luc-Neo cells are a human hepatoma cell line (Huh-7) stably expressing a bi-cistronic subgenomic replicon containing the HCV IRES in which the structural proteins of HCV had been deleted and replaced by a construct containing sequences coding for the firefly luciferase reporter gene, the neomycin selectable marker and the EMCV IRES to direct expression of a truncated HCV genome expressing the […] NS3, NS4A, NS4B, NS5A, and NS5B. HCV targets through which inhibitors could act to inhibit replication include the NS3 protease, the helicase/ATPase, NS5A, the NS5B- RNA dependent RNA polymerase, and the HCV IRES.
(§2) Expression of HCV IRES driven luciferase reporter activity and HCV RNA is measured to obtain indirect and direct measures of replication of HCV RNA respectively. Inhibitors of HCV replication and/or proliferation are determined by initially identifying molecules that inhibit expression of the HCV IRES driven luciferase reporter in this HCV Replicon Luciferase Assay. Cell viability assays and control cell based luciferase assays are then run on hits identified in the HCV Replicon Luciferase Assay to eliminate cytoxic compounds and non-specific compounds which act by inhibiting the luciferase enzyme.
Day 0 Cell Seeding and Compound Treatment: Huh-Luc-Neo Cells are seeded at 25,000/well in an opaque-walled 96 plate with Growth Medium (DMEM phenol red free+PS+2 mM glutamine; 100 μl/well). The compounds to be tested are added to the experimental wells (10 μl/well at 10× assay concentration) and the cells are then incubated (5% CO2, 37° C.) for 48 h.
(§3) Day 2 Reagent Preparation and Luciferase Assay: The Bright-Glo Luciferase Assay Buffer (Promega) is thawed and equilibrated to room temperature prior to use. The lyophilized Bright-Glo Luciferase Assay Substrate is equilibrated to room temperature prior to use. 10 ml of Bright-Glo Luciferase Assay Buffer is transferred to 1 vial of Bright-Glo Luciferase Assay Substrate bottle and mixed by gently with a Vortex. 100 ul of Bright-Glo Luciferase Assay reagent (Bright-Glo Luciferase Assay Buffer+Bright-Glo Luciferase Assay Substrate Mixture) is added to each well. The well contents are mixed for 5 min. on an orbital shaker at room temperature to induce cell lysis and the luminescence is then measured using a luminometer. The data is analyzed and IC50s are determined using GraphPad Prism 4 software. Hits validated in the Replicon Luciferase assay have IC50s<8.0 μM and show<30% inhibition of Cell Viability at a compound concentration of 100 μM (Cell Titer Glow Assay, cell viability assay conditions identical to HCV Replicon Luciferase Assay conditions).

[2] = tested on: HCV Replicon (HCV RNA in Huh-Luc-Neo cells); assay: HCV Replicon RNA Assay (Taqman); assay type: cell-based, Hepatitis C virus; conditions: compound added day 0 and day 1, no unit in table, hit threshold in μM; for IC50: Hepatitis C virus
Procedure: as §1, §2
Day 0, Cell Seeding and Compound Treatment: Huh-Luc-Neo Cells are seeded at 25,000/well in an opaque-walled 96 plate with Growth Medium (DMEM phenol red free+PS+2 mM glutamine; 100 μl/well). The compounds to be tested are added to the experimental wells (10 μl/well at 10× assay concentration) and the cells are then incubated (5% CO2, 37° C.).
Day 1, Media Change and Compound Treatment: 24 hours after the initial compound treatment the cell culture media is aspirated from the wells and fresh Growth Medium is added (DMEM phenol red free+PS+2 mM glutamine; 100 μl/well). The compounds to be tested are then added to the appropriate experimental wells (10 μl/well at 10 × assay concentration) and the cells are then incubated (5% CO2, 37° C.) for an additional 24 hrs.
Day 2, RNA Isolation and cDNA Synthesis: The cells are washed with 1× Phosphate Buffered Saline (PBS) once.
(§4) Day 3, Quantitative PCR Based Measurement of HCV RNA (Taqman Assay): Quantitative PCR analysis to measure HCV RNA expression from cDNA synthesized on Day 2 is performed using the ABI 9700 HT Sequence Detection System (Applied Biosystems) as previously described (Lohman et al, Science 285, 110-113, 1999). The data is analyzed and IC50s are determined using GraphPad Prism 4 software. Hits validated in the Replicon RNA Assay have IC50s<8.0 μM and show <30% inhibition of Cell Viability at a compound concentration of 50 μM (Cell Titer Glow Assay, cell viability assay conditions identical to HCV Replicon RNA Assay conditions).

[3] = tested on: Huh-Luc-Neo cells; assay: CellTiter-Glo Cell Viability Assay; assay type: cell-based, human; conditions: for Toxicity % Inhibition at 50 uM (2 doses): inhibition of cell viability at 50 uM, conditions as in Replicon RNA Assay; for Toxicity % Inhibition at 100 um (1 dose): inhibition of cell viability at 100 um, conditions as in Replicon Luciferase Assay (48 h)
Procedure: as §3, §4
Day 0, Cell Seeding and Compound Treatment: Huh-Luc-Neo Cells are seeded at 25,000/well in an opaque-walled 96 plate with Growth Medium (DMEM phenol red free+PS+2 mM glutamine; 100 ul/well). The compounds to be tested for inhibition of cell viability are added to the experimental wells (10 μl/well at 10× assay concentration) and the cells are then incubated (5% CO2, 37° C.) for 48 h.
Day 2, Reagent Preparation and Assay: The CellTiter-Glo Buffer is thawed and equilibrated to room temperature prior to use. The lyophilized CellTiter-Glo Substrate is equilibrated to room temperature prior to use. 10 ml of CeliTiter-Glo Buffer is transferred to 1 vial of CellTiter-Glo Substrate and mixed by gently with a Vortex. 100 μl of CellTiter-Glo Assay reagent (CellTiter-Glo Buffer+CellTiter-Glo Substrate Mixture) is added to each well. The well contents are mixed for 5 min. on an orbital shaker at room temperature to induce cell lysis and the luminescence is then measured using a luminometer.

| SMILES | IC50 [1] | IC50 [2] | Toxicity % Inhibition at 50 uM (2 doses) [3] | Toxicity % Inhibition at 100 um (1 dose) [3] | TaqMan IC50 [2] |
| --- | --- | --- | --- | --- | --- |
| COc1ccc2c(OCc3ccc(C)cc3)c(Cc3ccc(C)cc3)c(=O)oc2c1 [VQ_31763] | 8.29 µM | 0.43 µM | 6.5% | 4.6% |  |
| COc1ccc(Nc2c(/C=N/c3cc(Cl)cc(Cl)c3)c(=O)oc3ccccc23)cc1 [VQ_36594] | 0.74 µM | > 30 µM | 13.7% | 9.1% |  |
| O=c1[nH]c2ccccc2c(OCc2ccc(F)cc2)c1Cc1ccc(F)cc1 [VQ_35018] | 1 µM |  | 12.3% | 10.0% | Inactive |
| COc1ccc2c(OCc3ccc(C(F)(F)F)cc3)c(Cc3ccc(C(F)(F)F)cc3)c(=O)oc2c1 [VQ_31758] | 6.16 µM | 5.24 µM | 2.6% | 14.7% |  |
| COc1ccc(/N=C/c2c(Nc3ccc(OC)cc3)c3ccccc3oc2=O)cc1 [VQ_36473] | 0.02 µM | 1.71 µM | 10.7% | 4.3% |  |
| COc1ccc2c(OCc3ccc(F)c(F)c3)c(Cc3ccc(F)c(F)c3)c(=O)oc2c1 [VQ_31748] | 5.38 µM | 1.97 µM | 4.9% | 10.0% |  |
| Cn1c(=O)c(Cc2ccc(Cl)c(Cl)c2)c(OCc2ccc(Cl)c(Cl)c2)c2ccccc21 [VQ_34453] | 8.5 µM | 1.97 µM | 12.2% | 24.6% |  |
| COc1ccc(-c2c(OCc3cccc(C(F)(F)F)c3)c3ccccc3oc2=O)cc1 [VQ_36312] | 3.06 µM | 0.89 µM | 40.8% | 5.0% |  |
| Cc1cc2oc(=O)c(Cc3ccc(F)cc3F)c(OCc3ccc(F)cc3F)c2cc1C [VQ_32806] | 5.57 µM | 1.4 µM | 8.3% | 16.5% |  |
| COC(=O)CNCc1c(Nc2ccc(C)cc2)c2ccccc2oc1=O [VQ_36341] | 0.28 µM | 0.4 µM | 31.2% | 14.6% |  |
| Cc1ccc(COc2c(Cc3ccc(C)cc3)c(=O)n(Cc3ccc(C)cc3)c3ccccc23)cc1 [VQ_33645] | 2.33 µM | > 30 µM | 17.2% | 21.5% |  |
| Cc1cccc(COc2c(Cc3cccc(C)c3)c(=O)[nH]c3ccccc23)c1 [VQ_35027] | 2.1 µM |  | 12.5% | 4.6% | Inactive |
| COc1ccc(Nc2c(/C=N/c3nc4ccccc4s3)c(=O)oc3ccccc23)cc1 [VQ_36469] | 53.6 µM | 4.16 µM | 3.3% | 14.7% |  |
| COc1ccc2c(OCc3cccc(C)c3)c(Cc3cccc(C)c3)c(=O)oc2c1 [VQ_31729] | 3.53 µM | 0.36 µM | 5.1% | 3.0% |  |
| O=c1oc2ccccc2c(OCc2cccc(C(F)(F)F)c2)c1Cc1cccc(C(F)(F)F)c1 [VQ_31711] | 5.16 µM | 0.12 µM | 4.3% | 4.6% |  |
| COc1ccc2c(OCc3cccc(C(F)(F)F)c3)c(Cc3cccc(C(F)(F)F)c3)c(=O)oc2c1 [VQ_31754] | 5.45 µM | 5.35 µM | 1.9% | 2.5% |  |
| Cc1ccc(COc2c(Cc3ccc(C)cc3)c(=O)oc3ccccc23)cc1 [VQ_31715] | 2.8 µM | 0.55 µM | 13.4% | 53.4% |  |
| COc1ccc(Nc2c(/C=N/c3ncccn3)c(=O)oc3ccccc23)cc1 [VQ_36470] | 59.9 µM | 4.08 µM | −2.7% | 12.5% |  |
| CCCCCC/N=C/c1c(Nc2ccc(OC)cc2)c2ccccc2oc1=O [VQ_36468] | 43.3 µM | 0.71 µM | 16.3% | 40.7% |  |
| COc1ccc2c(OCc3ccc(F)cc3F)c(Cc3ccc(F)cc3F)c(=O)oc2c1 [VQ_31744] | 4.5 µM | 0.28 µM | 7.0% | 10.9% |  |
